Calls of active or inactive are those of the source. No rule for the calls is given here.

The series deals with rodent carcinogenicity bioassays, tumor incidence. The series is described as follows: CCRIS carcinogenicity studies. Summed up:
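NCI-built, expert-reviewed records of carcinogenicity and related test outcomes (mutagenicity, tumor promotion/inhibition) compiled from published and report sources, historical span 1985-2011, not updated.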

`O=C1c2ccccc2-c2ccc3c4c(ccc1c24)-c1ccccc1C3=O`: the carcinogen call is “inactive; negative” (Species: MOUSE, Strain/Sex: B6C3F1/FEMALE, Route: ORAL, Dose: 0, 12500, 25000 PPM IN DIET, Dose: 0, 12500, 25000 PPM IN DIET); “active; positive” (Species: MOUSE, Strain/Sex: B6C3F1/MALE, Route: ORAL, Dose: 0, 25000, 50000 PPM IN DIET, Dose: 0, 25000, 50000 PPM IN DIET, Tumor Site: Type of Lesion: LYMPHATIC SYSTEM: LYMPHOMA, LIVER: HEPATOCELLULAR CARCINOMA); “inactive; negative” (Species: RAT, Strain/Sex: F344/FEMALE, Route: ORAL, Dose: 0, 3500, 7000 PPM IN DIET, Dose: 0, 3500, 7000 PPM IN DIET); “inactive; negative” (Species: RAT, Strain/Sex: F344/MALE, Route: ORAL, Dose: 0, 3500, 7000 PPM IN DIET, Dose: 0, 3500, 7000 PPM IN DIET).

Turning to `ClC(Cl)=C(c1ccc(Cl)cc1)c1ccc(Cl)cc1`, the carcinogen call by setting is: (Species: MOUSE, Strain/Sex: B6C3F1/FEMALE, Route: ORAL, Dose: 0, 148, 261 PPM IN DIET, TWA, Dose: 0, 148, 261 PPM IN DIET, TWA, Tumor Site: Type of Lesion: LIVER: HEPATOCELLULAR CARCINOMA) “active; positive”; (Species: MOUSE, Strain/Sex: B6C3F1/MALE, Route: ORAL, Dose: 0, 148, 261 PPM IN DIET, TWA, Dose: 0, 148, 261 PPM IN DIET, TWA, Tumor Site: Type of Lesion: LIVER: HEPATOCELLULAR CARCINOMA) “active; positive”; (Species: MOUSE, Strain/Sex: CF-1/MALE,FEMALE, Route: ORAL, Dose: 250 PPM IN DIET, Tumor Site: Type of Lesion: LIVER: HEPATOMA) “active; positive”; (Species: RAT, Strain/Sex: OSBORNE-MENDEL/FEMALE, Route: ORAL, Dose: 0, 242, 462 PPM IN DIET, TWA, Dose: 0, 242, 462 PPM IN DIET, TWA) “inactive; negative”; (Species: RAT, Strain/Sex: OSBORNE-MENDEL/MALE, Route: ORAL, Dose: 0, 437, 839 PPM IN DIET, TWA, Dose: 0, 437, 839 PPM IN DIET, TWA) “inactive; negative”.

For the compound `C/C(=C(\CCOC(=O)c1ccccc1)SC(=O)c1ccccc1)N(C=O)Cc1cnc(C)nc1N`, the carcinogen call is “inactive; negative” (Species: RAT, Strain/Sex: SPRAGUE-DAWLEY/FEMALE, Route: ORAL, Dose: 0, 1000, 10000 PPM IN DIET FOR DURATION OF STUDY (STUDY DURATION: 105 WK), Dose: 0, 1000, 10000 PPM IN DIET FOR DURATION OF STUDY (STUDY DURATION: 105 WK)) and “inactive; negative” (Species: RAT, Strain/Sex: SPRAGUE-DAWLEY/MALE, Route: ORAL, Dose: 0, 1000, 10000 PPM IN DIET FOR DURATION OF STUDY (STUDY DURATION: 105 WK), Dose: 0, 1000, 10000 PPM IN DIET FOR DURATION OF STUDY (STUDY DURATION: 105 WK)).

As to `CCC1(c2ccccc2)C(=O)NCNC1=O`, the carcinogen call (Species: MOUSE, Strain/Sex: B6C3F1/FEMALE, Route: ORAL, Dose: 0, 300, 600, 1300 PPM IN DIET FOR 104 WK (STUDY DURATION: 104 WK), Dose: 0, 300, 600, 1300 PPM IN DIET FOR 104 WK (STUDY DURATION: 104 WK), Tumor Site: Type of Lesion: LIVER: HEPATOCELLULAR ADENOMA, HEPATOCELLULAR CARCINOMA, OR HEPATOBLASTOMA) was “active; positive”; the carcinogen call (Species: MOUSE, Strain/Sex: B6C3F1/MALE, Route: ORAL, Dose: 0, 300, 600, 1300 PPM IN DIET FOR 104 WK (STUDY DURATION: 104 WK), Dose: 0, 300, 600, 1300 PPM IN DIET FOR 104 WK (STUDY DURATION: 104 WK), Tumor Site: Type of Lesion: LIVER: HEPATOCELLULAR ADENOMA, HEPATOCELLULAR CARCINOMA, OR HEPATOBLASTOMA, THYROID GLAND: FOLLICULAR CELL ADENOMA) is “active; positive”; the carcinogen call (Species: RAT, Strain/Sex: F344/FEMALE, Route: ORAL, Dose: 0, 600, 1300, 2500 PPM IN DIET FOR 104 WK (STUDY DURATION: 104 WK), Dose: 0, 600, 1300, 2500 PPM IN DIET FOR 104 WK (STUDY DURATION: 104 WK)) was “inactive; negative”; the carcinogen call (Species: RAT, Strain/Sex: F344/MALE, Route: ORAL, Dose: 0, 600, 1300, 2500 PPM IN DIET FOR 104 WK (STUDY DURATION: 104 WK), Dose: 0, 600, 1300, 2500 PPM IN DIET FOR 104 WK (STUDY DURATION: 104 WK), Tumor Site: Type of Lesion: THYROID GLAND: FOLLICULAR CELL ADENOMA, FOLLICULAR CELL ADENOMA OR CARCINOMA, KIDNEY: RENAL TUBULE ADENOMA OR CARCINOMA) was “equivocal”.

`O=C(O)c1cc2ccccc2c(N=Nc2ccccc2)c1O`: the carcinogen call (Species: MOUSE, Strain/Sex: ICR/FEMALE, Route: DERMAL, Dose: 0, 1 MG IN 0.1 ML DISTILLED WATER 2/WK FOR A MEAN TOTAL DOSE OF 122.2 MG (STUDY DURATION: 18 MO)) was “inactive; negative” and the carcinogen call (Species: MOUSE, Strain/Sex: ICR/MALE, Route: DERMAL, Dose: 0, 1 MG IN 0.1 ML DISTILLED WATER 2/WK FOR A MEAN TOTAL DOSE OF 122.2 MG (STUDY DURATION: 18 MO)) is “inactive; negative”.

Consider `CNC(=O)CSP(=S)(OC)OC`, for which the carcinogen call (Species: MOUSE, Strain/Sex: B6C3F1/FEMALE, Route: ORAL, Dose: 0, 250, 500 PPM IN DIET, Dose: 0, 250, 500 PPM IN DIET) is “inactive; negative”; the carcinogen call (Species: MOUSE, Strain/Sex: B6C3F1/MALE, Route: ORAL, Dose: 0, 250, 500 PPM IN DIET, Dose: 0, 250, 500 PPM IN DIET) is “inactive; negative”; the carcinogen call (Species: RAT, Strain/Sex: OSBORNE-MENDEL/FEMALE, Route: ORAL, Dose: 0, 192, 384 PPM IN DIET, TWA, Dose: 0, 192, 384 PPM IN DIET, TWA) is “inactive; negative”; the carcinogen call (Species: RAT, Strain/Sex: OSBORNE-MENDEL/MALE, Route: ORAL, Dose: 0, 155, 310 PPM IN DIET, TWA) was “inactive; negative”; the carcinogen call (Species: RAT, Strain/Sex: WISTAR/FEMALE, Route: ORAL, Dose: 0, 2, 20, 200 PPM IN DIET FOR 2 YR (STUDY DURATION: 2 YR), Dose: 0, 2, 20, 200 PPM IN DIET FOR 2 YR (STUDY DURATION: 2 YR)) is “inactive; negative”; the carcinogen call (Species: RAT, Strain/Sex: WISTAR/MALE, Route: ORAL, Dose: 0, 2, 20, 200 PPM IN DIET FOR 2 YR (STUDY DURATION 2 YR), Dose: 0, 2, 20, 200 PPM IN DIET FOR 2 YR (STUDY DURATION 2 YR)) was “inactive; negative”.

On to `CC(=O)OC[C@H]1O[C@H](O[C@]2(COC(C)=O)O[C@H](COC(=O)C(C)C)[C@@H](OC(=O)C(C)C)[C@@H]2OC(=O)C(C)C)[C@H](OC(=O)C(C)C)[C@@H](OC(=O)C(C)C)[C@@H]1OC(=O)C(C)C`, for which the carcinogen call is “inactive; negative” (Species: MONKEY, Strain/Sex: CYNOMOLGUS/FEMALE, Route: GAVAGE, Dose: 0, 500, 1450, 2400 MG/KG BW 1X/D FOR 52 WK (STUDY DURATION: 52 WK), Dose: 0, 500, 1450, 2400 MG/KG BW 1X/D FOR 52 WK (STUDY DURATION: 52 WK)); “inactive; negative” (Species: MONKEY, Strain/Sex: CYNOMOLGUS/MALE, Route: GAVAGE, Dose: 0, 500, 1450, 2400 MG/KG BW 1X/D FOR 52 WK (STUDY DURATION: 52 WK), Dose: 0, 500, 1450, 2400 MG/KG BW 1X/D FOR 52 WK (STUDY DURATION: 52 WK)); “inactive; negative” (Species: MOUSE, Strain/Sex: B6C3F1/FEMALE, Route: ORAL, Dose: 0, 1.25, 2.5, 5 G/KG BW IN DIET FOR 2 YR (STUDY DURATION: 2 YR), Dose: 0, 1.25, 2.5, 5 G/KG BW IN DIET FOR 2 YR (STUDY DURATION: 2 YR)); “inactive; negative” (Species: MOUSE, Strain/Sex: B6C3F1/MALE, Route: ORAL, Dose: 0, 1.25, 2.5, 5 G/KG BW IN DIET FOR 2 YR (STUDY DURATION: 2 YR), Dose: 0, 1.25, 2.5, 5 G/KG BW IN DIET FOR 2 YR (STUDY DURATION: 2 YR)); “inactive; negative” (Species: RAT, Strain/Sex: F344/FEMALE, Route: ORAL, Dose: 0 0.5, 1, 2 G/KG BE IN DIET FOR 2 YR (STUDY DURATION: 2 YR), Dose: 0 0.5, 1, 2 G/KG BE IN DIET FOR 2 YR (STUDY DURATION: 2 YR)); “inactive; negative” (Species: RAT, Strain/Sex: F344/MALE, Route: ORAL, Dose: 0, 0.5, 1, 2 G/KG BW IN DIET FOR 2 YR (STUDY DURATION: 2 YR), Dose: 0, 0.5, 1, 2 G/KG BW IN DIET FOR 2 YR (STUDY DURATION: 2 YR)).

For the compound `c1ccc2c(c1)c1cccc3ccc4cccc2c4c31`, the carcinogen call (Species: RAT, Strain/Sex: OSBORNE-MENDEL/FEMALE, Route: LUNG IMPLANT, Dose: 0, 0.2, 1.0, 5.0 MG IN BEESWAX/TRIOCTANOIN (STUDY DURATION: LIFETIME), Dose: 0, 0.2, 1.0, 5.0 MG IN BEESWAX/TRIOCTANOIN (STUDY DURATION: LIFETIME)) was “inactive; negative”.

(Values after PubChem BioAssay AID1259411 (Chemical Carcinogenesis Research Information System (CCRIS), 2018).)
